# Assays:
# Format in all cases: cell-based, human
# [1] = test system: shSSTR subtype 2-BON cells; experiment: Growth suppression in tetracycline-controlled shRNA knock-down cells; settings: sh-hSSTR subtype 2-BON; FIG. 5
# Description: To validate that cell growth inhibition is caused by the anti-hSSTR antibody in a subtype specific manner, BON cells were stably transfected with plasmids carrying short hairpin RNA shSSTR subtype 2 or shSSTR subtype 5 in which the expression of the shRNAs were under the control of tetracycline. Sh-hSSTR subtype 2 and sh-hSSTR subtype 5 destabilize the target receptor's messenger RNA and, consequently, knock down the expression of the target gene.
# The resulting maximal suppression in hours (20 hours) is designated as 100% of growth suppression. The difference measured in doubling time detected between experimental samples and untreated samples divided by the maximal suppression yields the percent growth suppression.
# shSSTR BON cells were used to test the specificity of anti-hSSTR subtype 2 and anti-hSSTR subtype 5 antibodies in suppressing BON cell growth. […] The left panels of FIG. 6a and FIG. 6B are the experimental group, while the right panels are the negative control. The Y-axis of each of FIG. 6A and FIG. 6B indicates the growth suppression outcome in %, while the X-axis of each of FIG. 6A and FIG. 6B indicates the increasing concentrations of the antibodies added in each sample. […]
# [2] = test system: sh-hSSTR subtype 5-BON cells; experiment: Growth in tetracycline-controlled shRNA knock-down cells; settings: FIG. 5
# QGP cells = experiment: MTS growth assay in pancreatic islet carcinoma cells; settings: antibodies 5 μg/ml every 24 hours, octreotide 100 nM every 24 hour, FIG. 15
# Description: The QGP cells were maintained in F12 HAM (Invitrogen, Cat#31765035)/D-MEM (Invitrogen, Cat#10567-014) (50/50) in 10% certified fetal bovine serum (FBS) (Invitrogen, Cat#16000-044) in 10-cm tissue culture plates (BD Biosciences, Cat#353003). QGP cells were first seeded at a density of 5000 cells/well in QGP cell growth media and grown in 96-well cell culture plates (Costar, Cat#3590) and allowed to attach and grow in 100 μl cell growth media. […] QGP cells constitutively make their own somatostatin. This negative growth autocrine loop was tested by adding 10 μg/ml neutralizing anti-SST antibody (SST antibody, right hand Y-axis of FIG. 15) once every 24 hours, and a significant growth rescue (29%) was observed. […] CellTiter 96® Aqueous One Solution Cell Proliferation Assay (MTS) (Promega, Cat#G3581), was used as described above to measure the growth doubling time for all QGP cells. Daily data collected was used to calculate the doubling time in hours. QGP cell growth increase or decrease as a result of each treatment is presented as a percent change along the x-axis in FIG. 15. The percent change for QGP cells in each treatment was derived by normalizing treated cells against untreated cells (as % of change in growth) in growth doubling time.
# BON cells [3] = experiment: Cell cycle progression, propidium iodide flow cytometry; settings: 48 hours, 5 μg/ml antibodies or rabbit IgG, 100 nM octreotide, FIG. 12
# Description: Propidium iodide dye was used in flow cytometry (Guava Cell Cycle Reagent Cat #4500-0220) to stain DNA and detect cell cycle progression in BON cells. Treatment conditions for the experiment were as follows: (i) D-PBS; (ii) 5 μg/ml rabbit IgG; (iii) 5 μg/ml anti-hSSTR subtype 2 antibodies; […] Treatments, as described above, were added to the cells once every 24 hours for a total of 48 hours. At the end of each treatment, cells were dissociated from the plate using 2 ml 1× trypsin-EDTA (Invitrogen Cat#2520). […] Next, phosphate buffer solution (D-PBS) (Invitrogen Cat#14190-144) was used as the exchange buffer and 15 ml Falcon tubes with samples were spun at 900 rpm using a table top centrifuge (Beckman Coulter). After centrifugation, supernatant was discarded and cell pellet was resuspended in 10 ml of PBS and this was repeated two times. […] Guava Cell Cycle Reagent (Guava Technologies, Cat#4500-0220) was used for detection by using the Guava PCA96 instrument. Cell Cycle data was analyzed by using Guava Cell Cycle module (Guava Technologies, Cat# 0500-0480). For further detail, please see Guava Cell Cycle Reagent protocol (Guava Technologies).
# BON cells [4] = experiment: Serotonin EIA, serotonin release
# Description: A serotonin ([…]) assay was performed using Serotonin EIA (Biosource, Cat# KAPL10-0900) to measure serotonin release by BON cells over a 48-hour period with or without treatment. […] After 24 hours, the BON cells were subjected to six different daily treatments (at maximum dosages) and grown in FBS-free cell growth media for 2 days in a sterile tissue culture chamber at 37° C. with 6% CO2. These six treatments were: […] The anti-hSSTR Abs (4)-(6) were antibodies produced in the experiment described in Example 1. At the end of each treatment, 1× Halt Protease Inhibitor cocktail (Pierce, Cat# 78415) was immediately added to each sample and the media was collected from each sample and used for Serotonin detection. Next, cells were dissociated from the plate using 2 ml of 1× trypsin-EDTA (Invitrogen Cat#2520) in cell growth media and incubated at 37° C. with 6% CO2 for 5 minutes. Subsequently, an additional 8 ml of cell growth media was added to neutralize trypsin-EDTA, and subjected to 1000 rpm at 4° C. in 15 ml Falcon tubes using Beckman table top centrifuge. Guava Technologies PCA-96 instrument (tabletop flow cytometer) and Viacount flex reagent (Guava Technologies, Cat# 4500-0100) were then used to determine the number of cells for the abovementioned treatments. The results were as follows: […] […]
smiles,measurement,setting,value
C[C@@H](O)[C@@H]1NC(=O)[C@H](CCCCN)NC(=O)[C@@H](Cc2c[nH]c3ccccc23)NC(=O)[C@H](Cc2ccccc2)NC(=O)[C@@H](NC(=O)[C@H](N)Cc2ccccc2)CSSC[C@@H](C(=O)N[C@H](CO)[C@@H](C)O)NC1=O [octreotide],growth doubling time under octreotide compared to BON cells,[1],did not change
same,growth doubling time under octreotide compared to BON cells,[2],did not change
same,QGP growth suppression,QGP cells,sensitive
same,cell population in G0/G1,BON cells [3],~75%
same,serotonin level in the media,"BON cells [4]; 48-hour period, 5 μg/ml antibody or rabbit IgG, 100 nM octreotide, four independent experiments",2126 attogram/cell
same,decrease of serotonin release against control,"BON cells [4]; 48 hours, antibodies against rabbit IgG, octreotide against vehicle (PBS)",2.7 fold

# Source: patent US20090016989A1, “ANTIBODIES TO HUMAN SOMATOSTATIN RECEPTOR AND METHODS OF USE” (priority 2007, published 2009)
